Key:
[1] = tested on: rat HCC cell line, CRL-1601; settings: 12.5 or 25 mg/kg/day s.c. for 4 weeks
Excerpt: The CXCR4 antagonists used was the short peptide dimer antagonist CTCE-9908 (SEQ ID NO.1). A rat orthotopic hepatocellular carcinoma (HCC) model was established by injection of a rat HCC cell line, CRL-1601, into the left lobe of the liver of Buffalo rats. Since the rat HCC cell line was generated from Buffalo rats, in vivo formed tumor in the Buffalo rats can mimic the clinical setting. […]
The first group (control) received sham operation followed by water for irrigation. […] The dimension of the primary tumour was measured along with liver function. The microvessel density, proliferation index of tumor cells, apoptotic state and morphology of tumour cells in primary tumour and metastases were analysed by immunohistochemistry. […] The number of metastatic tumour loci was analysed. Plasma SDF-1 was analyzed by ELISA. […]
This study examined a rat model of hepatocellular carcinoma (HCC) that mimics transarterial chemoembolization in the clinical setting. […] One week after the last CTCE-9908 treatment, the rats were sacrificed and assessments of the tumor as well as the circulating cells were made by luminescence and flow cytometry, respectively.

[2] = tested on: refractory neoplasms (various solid tumors); assay: open label, dose-finding trial (Accelerated Titration Design) in subjects with refractory neoplasms; type: in vivo, human
Description: According to the study design, the cohort was to be expanded in the case of moderate toxicity to include more subjects and additional dose increments (40%) until the maximum dose of 5 mg/kg or dose limiting toxicity was achieved.
Subjects were dosed daily for 4 consecutive weeks (not including weekends and holidays) and dose limiting toxicity was assessed after subjects have completed their treatment.
Toxicity reported during the study was graded according to the National Cancer Institute (NCI) CTCAE (Common Terminology Criteria for Adverse Events) v3.0. A Dose Limiting Toxicity (DLT) was defined as follows: • a) Any grade ≧3 reversible non-haematologic treatment-related toxicity OR • b) Any irreversible grade ≧2 non-haematologic treatment-related toxicity OR • c) Any grade ≧4 haematologic treatment-related toxicity lasting longer than 10 days during the 4 weeks of treatment
For the purpose of this study, Moderate Toxicity has been defined according to NCI CTCAE v3.0. Adverse events were treated when they occurred. No investigational or commercial agents or therapies were administered with the intent to treat the subject's malignancy during the period that the subjects were in the study.

## KGVSLSYR-X-RYSLSVGK [CTCE-9908]
[1]; CTCE-9908 in combination with hepatic artery ligation (HAL), luminescence and necropsy
  tumor regression: up to 80%
[1]; rats
  tolerability: well tolerated by all rats
[2]; NCI CTCAE v3.0, whole study
  number of Moderate Toxicities observed during the study: eight
[2]; at the end of their last treatment cycle, 1, 2.5 and 5 mg/kg/day doses
  overall stable disease, number of subjects: five
[2]; daily dosing for 4 consecutive weeks, up to 5 mg/kg, NCI CTCAE v3.0
  Dose Limiting Toxicity (DLT): no DLT was reported
[2]; one ovarian cancer subject and one colorectal cancer subject
  tumor markers: reduction in tumor markers
[2]; one small bowel subject
  duration of stable disease: up to seven
[2]; subjects with refractory neoplasms, up to 5 mg/kg
  Maximum Tolerated Dose (MTD): not established
